Source: article PMC6429585, “Synthesis, Microtubule-Binding Affinity, and Antiproliferative Activity of New Epothilone Analogs and of an EGFR-Targeted Epothilone-Peptide Conjugate” (International Journal of Molecular Sciences, 2019)
Where two headings read alike, the source gives them in different places.

Assays:
[1] = system: HEK293 cells; assay: cells; type: cell-based, human; conditions: Homo sapiens, read-out: IC50 HEK293
Protocol: (§1) Experiments were performed in RPMI (SW480 cells) or DMEM (HEK293 and A431 cells) medium (Gibco) supplemented with 2 mM glutamine, 10% fetal bovine serum, 100 IU/mL penicillin, 100 µg/mL streptomycin, and 1 µg/mL amphotericin B (all from Sigma) at 37 °C and 5% CO2. Cells were seeded into 96-well microtiter plates and compounds were added in DMSO in serial dilutions in triplicate. The final DMSO (dimethylsulfoxide) concentration was 0.1%. After 72 h, a WST-1 reagent was added and the absorption was measured at 450 nm with a plate reader after 30 min to 4 h. The percentage of viable cells was calculated based on vehicle-treated cells and was plotted in GraphPadPrism. At least three independent experiments were performed.
(§2) A431 cells were obtained from CLS. The other cell lines were available in the laboratory. WST-1 was purchased from Roche.

[2] = system: SW480 cells; assay: cells; type: cell-based, human; conditions: Homo sapiens, read-out: IC50 SW480
Protocol: as §1, §2

[3] = system: A431 cells; assay: cells; type: cell-based, human; conditions: Homo sapiens, read-out: IC50 A431
Protocol: as §1, §2

[4] = molecular target: glutaraldehyde-stabilized microtubules (paclitaxel binding site); assay: Microtubule binding affinity by displacement of Flutax-2 (fluorescence anisotropy); set-up: species or system calf
Protocol: The binding affinity of epothilone analogs 1, 14, and 16 and of targeted conjugate 4 for microtubules was determined as previously described by Díaz and co-workers, using partly cross-linked microtubules and determining the changes in fluorescence anisotropy upon displacement of the fluorescent taxol derivative Flutax-2 [42, 43] (Figure S3).
Purified calf-brain tubulin and chemicals were obtained as previously described. Stabilized, moderately crosslinked microtubules were prepared as reported in [42]. Binding constants of azathilones to stabilized microtubules were measured as previously described by Buey et al.. For details of the experimental procedures and Flutax-2 displacement curves cf. Section SI.3 of the Supplementary Materials.
SI.3. Disulfide cleavage asssay
Figure S2. […]
60 mg of frozen tubulin were thawed and loaded on a Sephadex G-25 column pre-equilibrated with cold 1 mM EGTA, 3.4 M glycerol, 10 mM sodium phosphate pH 6.8 buffer supplemented with 0.1 mM GTP. […] Fractions were collected and analyzed by spectrophotometry at 295 nm on a Thermo Evolution 300LC device. […] The tubulin concentration of the supernatant was determined by spectrophotometry at a 1:20 dilution of 10 mM sodium phosphate buffer containing 1%
SDS. The concentration was calculated with an extinction coefficient of 107’000 M-1cm-1 at 276 nm. […]
The concentration was measured spectrophotometrically as previously. […]

[5] = system: EGFR; conditions: read-out: IC50 for displacement of [^125I]-EGF from the EGFR; cited from earlier work
[6] = system: cross-linked stabilized microtubules; set-up: method as in earlier work; conditions: cited from earlier work
[7] = molecular target: EGFR (Homo sapiens) (UniProt P00533); assay: SPR; conditions: cited from earlier work
[8] = molecular target: stabilized, moderately crosslinked microtubules (calf-brain tubulin) (calf (endogenous in calf brain)) (UniProt Q6B856); assay: fluorescence polarisation; displacement of the fluorescent taxol derivative Flutax-2 from glutaraldehyde-stabilized, partly cross-linked microtubules, read by change in fluorescence anisotropy; 35 °C; association constant Kb

C/C(=C\c1csc(C)n1)[C@@H]1C[C@@H]2O[C@@H]2CCC[C@H](C)[C@H](O)[C@@H](C)C(=O)C(C)(C)[C@@H](O)CC(=O)O1 [Epo A, Epothilone A]
IC50 ([1]; HEK293, 72 h): 0.00271 ± 0.00062 µM | IC50 ([2]; SW480, 72 h): 0.0145 ± 0.00109 µM | IC50 ([3]; A-431, 72 h): 0.00294 ± 0.0003 µM

Cc1nc2cc([C@@H]3C[C@@H]4C[C@H]4CCC[C@H](C)[C@H](O)[C@@H](C)C(=O)C(C)(C)CCC(=O)O3)ccc2n1CCO [compound 1, (1S,3S,10R,11S,12S,16R)-11-Hydroxy-3-(1-(2-hydroxyethyl)-2-methyl-1H-benzo[d]imidazol-5-yl)-8,8,10,12-tetramethyl-4-oxabicyclo[14.1.0] heptadecane-5,9-dione]
IC50 ([1]; HEK293, 72 h): 0.00087 ± 0.00013 µM | IC50 ([2]; SW480, 72 h): 0.0176 ± 0.0035 µM | IC50 ([3]; A-431, 72 h): 0.00332 ± 0.0006 µM

CC(=O)SCCn1c(C)nc2cc([C@@H]3C[C@@H]4C[C@H]4CCC[C@H](C)[C@H](O)[C@@H](C)C(=O)C(C)(C)CCC(=O)O3)ccc21 [compound 14, S-(2-(5-((1S,3S,10R,11S,12S,16R)-11-Hydroxy-8,8,10,12-tetramethyl-5,9-dioxo-4-oxabicyclo[14.1.0]heptadecan-3-yl)-2-methyl-1H-benzo[d]imidazol-1-yl)ethyl) ethanethioate]
Kb lower compared to 1 ([4]; ratio of microtubule-binding affinity versus analog 1): > 10 fold

Cc1nc2cc([C@@H]3C[C@@H]4C[C@H]4CCC[C@H](C)[C@H](O)[C@@H](C)C(=O)C(C)(C)CCC(=O)O3)ccc2n1CCSSCCn1c(C)nc2cc([C@@H]3C[C@@H]4C[C@H]4CCC[C@H](C)[C@H](O)[C@@H](C)C(=O)C(C)(C)CCC(=O)O3)ccc21 [compound 16, Dimer of (1S,3S,10R,11S,12S,16R)-11-hydroxy-3-(1-(2-mercaptoethyl)-2-methyl-1H-benzo[d]imidazol-5-yl)-8,8,10,12-tetramethyl-4-oxabicyclo[14.1.0]heptadecane-5,9-dione]
IC50 ([1]; HEK293, 72 h incubation, mean of three experiments ± SD): 0.00208 ± 0.00053 µM | IC50 ([2]; SW480, 72 h incubation, mean of three experiments ± SD): 0.00891 ± 0.00126 µM | IC50 ([3]; A-431, 72 h incubation, mean of three experiments ± SD): 0.00837 ± 0.00081 µM

CysCE11: GE11 peptide with a Cys residue added to the N-terminus; custom-made by Biosyntan (CYHWYGYTPQNVI) [reference compound]
microtubule binding (in words) [4]: no relevant microtubule binding

EGF: epidermal growth factor, natural EGFR ligand
IC50 [5]: 0.0051 µM

Flutax-2
Flutax-2 Ka ([6]; 26 °C): 6.5 107 M-1 | Flutax-2 Ka ([6]; 27 °C): 5.9 107 M-1 | Flutax-2 Ka ([6]; 30 °C): 4.6 107 M-1 | Flutax-2 Ka ([6]; 32 °C): 4.2 107 M-1 | Flutax-2 Ka ([6]; 35 °C): 3.0 107 M-1 | Flutax-2 Ka ([6]; 37 °C): 2.2 107 M-1 | Flutax-2 Ka ([6]; 40 °C): 2.0 107 M-1 | Flutax-2 Ka ([6]; 42 °C): 1.8 107 M-1

GE11 peptide
Kd [7]: 459 µM

GE11: 12-amino acid residue peptide of the sequence YHWYGYTPQNVI, reported to bind to EGFR [reference compound]
IC50 [5]: > 1000 µM

B1: epothilone-GE11 conjugate 4 (peptide)
peptide: CYHWYGYTPQNVI
modifications: side chain of the N-terminal Cys disulfide-linked to the thiol-containing epothilone analog 2; C-terminal amide (by the systematic name of 4)
Ka [8]: 9.3e+06 M⁻¹

CYHWYGYTPQNVI [Cys-GE11 peptide]
Ka [8]: 50000 M⁻¹
